From article doi:10.1101/208439v1 (biorxiv, 2017) come the findings set out here.

As usually defined, the IC50 is the concentration needed to halve the response being measured. A higher IC50 goes with weaker potency.

Targets include DNMT3a (Homo sapiens, UniProt Q9Y6K1); PRMT3 (Homo sapiens, UniProt O60678); DNMT3b/3L (Homo sapiens, UniProt Q9UBC3); SUV39H2 (Homo sapiens, UniProt Q9H5I1).
Assay in all cases: biochemical
The target in a further assay is T1, SMYD1 (Homo sapiens, UniProt Q8NB12).
T1 sequence (Q8NB12 1-490): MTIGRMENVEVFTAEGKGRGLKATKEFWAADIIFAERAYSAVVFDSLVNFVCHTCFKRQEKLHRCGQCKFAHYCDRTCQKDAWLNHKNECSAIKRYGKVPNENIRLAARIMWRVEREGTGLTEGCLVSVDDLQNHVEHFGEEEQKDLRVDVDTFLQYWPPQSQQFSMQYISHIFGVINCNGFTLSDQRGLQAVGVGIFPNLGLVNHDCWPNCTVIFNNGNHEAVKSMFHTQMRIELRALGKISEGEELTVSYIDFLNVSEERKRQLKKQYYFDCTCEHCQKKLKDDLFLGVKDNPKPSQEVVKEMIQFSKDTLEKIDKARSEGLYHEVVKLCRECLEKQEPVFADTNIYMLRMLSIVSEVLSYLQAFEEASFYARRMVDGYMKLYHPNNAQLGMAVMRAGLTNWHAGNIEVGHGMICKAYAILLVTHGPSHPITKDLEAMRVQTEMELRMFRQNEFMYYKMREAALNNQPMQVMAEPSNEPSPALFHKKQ

For a further assay, the target named is T2, GLP (Homo sapiens, UniProt Q9H9B1).
T2 construct: gene EHMT1
T2 sequence (Q9H9B1 1-1298): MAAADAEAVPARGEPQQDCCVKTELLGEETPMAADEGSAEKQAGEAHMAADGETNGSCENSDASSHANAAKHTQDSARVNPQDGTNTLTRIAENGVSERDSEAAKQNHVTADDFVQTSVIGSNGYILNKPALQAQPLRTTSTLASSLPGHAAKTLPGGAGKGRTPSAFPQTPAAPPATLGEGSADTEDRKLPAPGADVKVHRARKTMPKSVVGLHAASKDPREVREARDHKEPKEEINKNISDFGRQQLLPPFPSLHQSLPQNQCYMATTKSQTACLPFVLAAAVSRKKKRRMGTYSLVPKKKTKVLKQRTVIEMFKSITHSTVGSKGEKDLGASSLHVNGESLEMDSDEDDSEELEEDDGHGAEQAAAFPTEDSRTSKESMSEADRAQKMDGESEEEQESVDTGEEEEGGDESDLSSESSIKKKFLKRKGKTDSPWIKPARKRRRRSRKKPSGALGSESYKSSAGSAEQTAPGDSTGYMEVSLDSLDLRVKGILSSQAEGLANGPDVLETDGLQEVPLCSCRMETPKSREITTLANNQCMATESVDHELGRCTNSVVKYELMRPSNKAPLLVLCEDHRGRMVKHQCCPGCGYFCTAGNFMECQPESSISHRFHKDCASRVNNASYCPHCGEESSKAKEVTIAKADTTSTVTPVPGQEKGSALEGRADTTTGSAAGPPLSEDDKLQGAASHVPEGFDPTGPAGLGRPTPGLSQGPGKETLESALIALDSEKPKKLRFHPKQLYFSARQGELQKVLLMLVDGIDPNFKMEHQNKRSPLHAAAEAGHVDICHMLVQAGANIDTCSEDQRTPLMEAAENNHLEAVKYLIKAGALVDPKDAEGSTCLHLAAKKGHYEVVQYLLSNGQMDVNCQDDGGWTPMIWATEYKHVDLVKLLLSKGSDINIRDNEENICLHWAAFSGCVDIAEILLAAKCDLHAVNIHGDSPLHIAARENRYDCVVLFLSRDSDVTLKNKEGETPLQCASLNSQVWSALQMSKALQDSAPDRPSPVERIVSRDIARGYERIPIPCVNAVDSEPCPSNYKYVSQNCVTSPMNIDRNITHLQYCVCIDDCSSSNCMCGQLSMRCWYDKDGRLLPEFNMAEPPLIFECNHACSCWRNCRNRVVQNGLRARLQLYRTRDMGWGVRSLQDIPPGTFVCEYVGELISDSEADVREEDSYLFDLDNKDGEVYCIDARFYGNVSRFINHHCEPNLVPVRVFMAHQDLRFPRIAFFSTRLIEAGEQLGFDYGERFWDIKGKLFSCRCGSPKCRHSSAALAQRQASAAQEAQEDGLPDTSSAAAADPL

Another assay addresses T3, SETD2 (Homo sapiens, UniProt Q9BYW2).
T3 sequence (Q9BYW2 1434-1711): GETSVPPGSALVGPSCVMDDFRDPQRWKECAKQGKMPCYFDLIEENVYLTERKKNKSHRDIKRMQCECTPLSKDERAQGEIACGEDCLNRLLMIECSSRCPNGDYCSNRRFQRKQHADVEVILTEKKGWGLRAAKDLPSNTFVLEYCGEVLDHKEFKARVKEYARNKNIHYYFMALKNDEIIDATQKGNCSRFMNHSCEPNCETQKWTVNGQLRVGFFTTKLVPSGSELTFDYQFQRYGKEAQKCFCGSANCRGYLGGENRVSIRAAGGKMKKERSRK

The target of a further assay is T4, SET7/9 (Homo sapiens, UniProt Q8WTS6).
T4 construct: gene SETD7
T4 sequence (Q8WTS6 1-366): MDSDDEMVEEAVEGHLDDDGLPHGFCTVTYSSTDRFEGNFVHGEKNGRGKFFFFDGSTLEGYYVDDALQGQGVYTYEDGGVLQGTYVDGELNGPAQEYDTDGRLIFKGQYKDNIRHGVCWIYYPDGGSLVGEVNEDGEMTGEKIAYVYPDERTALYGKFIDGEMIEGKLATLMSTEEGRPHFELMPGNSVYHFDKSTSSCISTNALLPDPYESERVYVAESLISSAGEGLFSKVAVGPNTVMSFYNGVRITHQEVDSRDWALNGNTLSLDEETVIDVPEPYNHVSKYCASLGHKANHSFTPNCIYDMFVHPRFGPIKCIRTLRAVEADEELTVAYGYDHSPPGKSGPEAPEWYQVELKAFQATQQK

Another assay addresses MLL4 Complex (Homo sapiens, UniProt Q9UMN6). Also noted: gene KMT2B.
For the next assay, the target named is MLL1 Complex (Homo sapiens, UniProt Q03164). Also noted: gene KMT2A.
The next assay concerns the target MLL2 Complex (Homo sapiens, UniProt O14686). Also noted: gene KMT2D.
Another assay concerns the target MLL3 Complex (Homo sapiens, UniProt Q8NEZ4). Set-up: gene KMT2C.
The target of another assay is SET1b Complex (Homo sapiens, UniProt Q9UPS6). Also noted: gene SETD1B.

MLL4 Complex, sequence (Q9UMN6 whole entry, looked up, one chain of several): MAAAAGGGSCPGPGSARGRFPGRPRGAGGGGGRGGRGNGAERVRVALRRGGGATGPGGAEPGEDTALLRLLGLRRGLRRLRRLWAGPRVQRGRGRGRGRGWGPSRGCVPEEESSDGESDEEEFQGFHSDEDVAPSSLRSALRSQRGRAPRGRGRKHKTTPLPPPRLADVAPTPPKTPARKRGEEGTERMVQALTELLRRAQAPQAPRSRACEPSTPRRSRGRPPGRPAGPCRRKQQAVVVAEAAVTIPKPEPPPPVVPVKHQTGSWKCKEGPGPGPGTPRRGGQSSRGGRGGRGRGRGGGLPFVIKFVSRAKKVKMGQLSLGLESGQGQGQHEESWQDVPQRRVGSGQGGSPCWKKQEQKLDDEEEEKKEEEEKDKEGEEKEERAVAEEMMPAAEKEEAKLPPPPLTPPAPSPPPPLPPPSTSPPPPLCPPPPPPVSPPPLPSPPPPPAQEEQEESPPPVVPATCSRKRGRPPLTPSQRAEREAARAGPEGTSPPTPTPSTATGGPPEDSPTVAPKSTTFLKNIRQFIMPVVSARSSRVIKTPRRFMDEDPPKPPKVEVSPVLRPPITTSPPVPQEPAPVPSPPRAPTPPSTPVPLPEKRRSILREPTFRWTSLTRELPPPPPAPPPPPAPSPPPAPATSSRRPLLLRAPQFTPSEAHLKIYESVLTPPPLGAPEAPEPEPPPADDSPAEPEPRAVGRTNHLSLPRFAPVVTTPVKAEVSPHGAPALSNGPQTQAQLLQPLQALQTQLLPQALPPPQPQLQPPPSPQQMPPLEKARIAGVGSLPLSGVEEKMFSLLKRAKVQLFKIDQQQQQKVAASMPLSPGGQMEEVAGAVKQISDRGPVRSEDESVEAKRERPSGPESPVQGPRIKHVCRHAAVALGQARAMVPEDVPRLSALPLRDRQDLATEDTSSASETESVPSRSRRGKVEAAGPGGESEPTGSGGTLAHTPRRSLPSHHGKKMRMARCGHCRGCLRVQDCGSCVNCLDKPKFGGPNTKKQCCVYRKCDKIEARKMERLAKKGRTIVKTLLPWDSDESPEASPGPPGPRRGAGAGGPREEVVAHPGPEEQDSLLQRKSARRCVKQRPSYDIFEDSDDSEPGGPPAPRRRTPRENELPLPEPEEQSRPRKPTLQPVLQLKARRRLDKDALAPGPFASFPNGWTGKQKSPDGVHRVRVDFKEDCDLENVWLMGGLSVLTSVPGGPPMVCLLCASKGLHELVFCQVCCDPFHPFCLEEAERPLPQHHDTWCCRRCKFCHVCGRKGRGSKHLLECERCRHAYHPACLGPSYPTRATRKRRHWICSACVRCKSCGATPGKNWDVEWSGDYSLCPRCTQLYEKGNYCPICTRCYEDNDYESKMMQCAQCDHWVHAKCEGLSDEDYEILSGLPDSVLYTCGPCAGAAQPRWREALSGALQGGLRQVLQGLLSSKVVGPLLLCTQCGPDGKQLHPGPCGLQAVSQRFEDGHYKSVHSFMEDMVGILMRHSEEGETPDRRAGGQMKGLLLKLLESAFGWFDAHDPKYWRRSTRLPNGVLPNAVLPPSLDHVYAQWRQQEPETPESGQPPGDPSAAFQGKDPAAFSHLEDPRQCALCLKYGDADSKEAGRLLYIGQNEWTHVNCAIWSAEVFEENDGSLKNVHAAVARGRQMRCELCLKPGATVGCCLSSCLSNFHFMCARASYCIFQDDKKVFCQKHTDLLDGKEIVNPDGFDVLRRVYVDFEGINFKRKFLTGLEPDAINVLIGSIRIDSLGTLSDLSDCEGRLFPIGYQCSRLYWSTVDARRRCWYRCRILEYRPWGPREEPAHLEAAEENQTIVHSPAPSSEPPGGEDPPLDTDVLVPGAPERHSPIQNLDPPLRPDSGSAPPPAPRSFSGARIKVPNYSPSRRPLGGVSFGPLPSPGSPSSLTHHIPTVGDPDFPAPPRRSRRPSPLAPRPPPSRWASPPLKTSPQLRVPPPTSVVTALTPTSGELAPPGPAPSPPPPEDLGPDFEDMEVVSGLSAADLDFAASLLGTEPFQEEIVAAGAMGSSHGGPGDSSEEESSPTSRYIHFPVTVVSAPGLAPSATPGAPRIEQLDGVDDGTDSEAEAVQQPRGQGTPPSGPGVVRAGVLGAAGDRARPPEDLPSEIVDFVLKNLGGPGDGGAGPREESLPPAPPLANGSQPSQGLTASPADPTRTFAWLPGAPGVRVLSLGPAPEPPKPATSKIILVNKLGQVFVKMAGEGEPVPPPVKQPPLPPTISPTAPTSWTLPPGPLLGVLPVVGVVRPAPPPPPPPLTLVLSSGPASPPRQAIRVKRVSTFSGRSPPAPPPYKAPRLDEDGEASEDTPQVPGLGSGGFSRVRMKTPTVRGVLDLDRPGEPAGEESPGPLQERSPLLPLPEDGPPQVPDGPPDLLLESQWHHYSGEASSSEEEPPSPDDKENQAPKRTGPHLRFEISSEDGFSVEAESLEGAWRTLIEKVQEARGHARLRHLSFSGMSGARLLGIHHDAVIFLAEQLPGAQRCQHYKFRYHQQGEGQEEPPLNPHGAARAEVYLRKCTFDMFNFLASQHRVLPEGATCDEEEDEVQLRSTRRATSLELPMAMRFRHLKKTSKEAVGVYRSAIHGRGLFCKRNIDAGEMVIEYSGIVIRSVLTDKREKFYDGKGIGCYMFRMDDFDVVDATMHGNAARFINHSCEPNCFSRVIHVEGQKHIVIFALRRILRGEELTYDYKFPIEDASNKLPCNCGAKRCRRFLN
SUV39H2, sequence (Q9H5I1 48-410): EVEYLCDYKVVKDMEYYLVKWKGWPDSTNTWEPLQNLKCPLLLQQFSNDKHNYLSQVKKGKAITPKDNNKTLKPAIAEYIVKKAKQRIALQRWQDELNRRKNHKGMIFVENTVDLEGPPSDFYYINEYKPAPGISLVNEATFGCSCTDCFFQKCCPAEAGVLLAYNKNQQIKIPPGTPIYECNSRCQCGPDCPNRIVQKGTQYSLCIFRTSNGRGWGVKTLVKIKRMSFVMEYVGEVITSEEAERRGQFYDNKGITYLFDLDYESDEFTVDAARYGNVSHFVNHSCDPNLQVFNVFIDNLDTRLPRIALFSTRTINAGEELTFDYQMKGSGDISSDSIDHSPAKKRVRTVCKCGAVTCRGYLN
PRMT3, sequence (O60678 2-531): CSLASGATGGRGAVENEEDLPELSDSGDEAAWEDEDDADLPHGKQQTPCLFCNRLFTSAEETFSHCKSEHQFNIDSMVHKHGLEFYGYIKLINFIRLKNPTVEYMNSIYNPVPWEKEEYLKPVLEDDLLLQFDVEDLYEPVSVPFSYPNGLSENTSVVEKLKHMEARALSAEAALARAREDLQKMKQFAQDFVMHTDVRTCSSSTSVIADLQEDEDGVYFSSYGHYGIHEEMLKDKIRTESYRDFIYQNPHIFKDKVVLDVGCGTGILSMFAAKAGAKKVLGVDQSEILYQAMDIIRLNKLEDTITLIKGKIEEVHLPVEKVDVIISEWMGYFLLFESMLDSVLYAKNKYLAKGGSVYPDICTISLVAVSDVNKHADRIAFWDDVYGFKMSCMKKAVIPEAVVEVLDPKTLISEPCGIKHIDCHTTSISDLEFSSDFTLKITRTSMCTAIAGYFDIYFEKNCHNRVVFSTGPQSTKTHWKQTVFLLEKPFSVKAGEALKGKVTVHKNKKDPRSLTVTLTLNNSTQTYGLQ
DNMT3a, sequence (Q9Y6K1 whole entry, looked up): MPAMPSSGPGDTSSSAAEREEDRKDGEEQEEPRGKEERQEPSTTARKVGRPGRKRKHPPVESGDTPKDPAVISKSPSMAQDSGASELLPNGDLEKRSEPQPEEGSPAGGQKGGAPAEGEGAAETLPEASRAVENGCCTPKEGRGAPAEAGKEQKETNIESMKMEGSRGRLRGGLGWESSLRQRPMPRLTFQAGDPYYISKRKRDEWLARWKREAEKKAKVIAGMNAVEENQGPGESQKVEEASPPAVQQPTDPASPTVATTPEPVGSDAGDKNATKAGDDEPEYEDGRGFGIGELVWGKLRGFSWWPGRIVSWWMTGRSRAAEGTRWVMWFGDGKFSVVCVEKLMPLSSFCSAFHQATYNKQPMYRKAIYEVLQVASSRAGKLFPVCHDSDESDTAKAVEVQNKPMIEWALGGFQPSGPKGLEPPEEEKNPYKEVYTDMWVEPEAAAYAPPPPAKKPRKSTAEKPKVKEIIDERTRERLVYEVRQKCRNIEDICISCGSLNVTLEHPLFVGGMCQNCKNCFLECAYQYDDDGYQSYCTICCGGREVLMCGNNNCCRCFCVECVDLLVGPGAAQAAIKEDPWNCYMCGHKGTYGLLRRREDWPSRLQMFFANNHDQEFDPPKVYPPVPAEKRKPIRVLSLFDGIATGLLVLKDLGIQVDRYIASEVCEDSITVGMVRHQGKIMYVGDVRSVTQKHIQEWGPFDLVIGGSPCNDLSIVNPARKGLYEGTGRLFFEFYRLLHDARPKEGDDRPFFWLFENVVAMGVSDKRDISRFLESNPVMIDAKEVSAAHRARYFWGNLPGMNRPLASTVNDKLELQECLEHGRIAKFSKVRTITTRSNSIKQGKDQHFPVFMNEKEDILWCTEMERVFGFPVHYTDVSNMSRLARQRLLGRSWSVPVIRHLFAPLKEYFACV

With `Nc1ncnc2c1ncn2[C@@H]1O[C@H](CSCC[C@H](N)C(=O)O)[C@@H](O)[C@H]1O` [SAH], the 50% inhibitory concentration (IC50) against DNMT3a came to 0.12 µM; at PRMT3, 2.3 µM; at DNMT3b/3L, 0.012 µM; on SMYD1, 37 µM; on GLP, 0.53 µM; at SUV39H2 it was 55 µM. The IC50 against SETD2 turned out to be 5.2 µM; against SET7/9, 83 µM; on MLL4 Complex, 2.5 µM; against MLL1 Complex it was 0.55 µM; at MLL2 Complex, 27 µM; against MLL3 Complex, 57 µM. The same compound registered an IC50 on SET1b Complex of 1.5 µM.
